Results: US8809270B2, “Method for reducing cardiovascular morbidity and mortality in prediaetic patients and patients with type 2 diabetes” (priority 2003, dated 2014)
“Also recorded” adds a separate entry of the source.

What was measured:
[1] = test system: people with impaired glucose tolerance (IGT) or impaired fasting glucose (IFG), mild type 2 diabetes; experiment: Study HOE901/1021: fasting and 8-point blood glucose profiles, bedtime dose titration; assay type: in vivo, human
Text: Study HOE901/1021 was a randomized, single-blind (pharmacist-unblinded), inpatient, dose-titration study designed to examine the safety and efficacy of HOE901 given once a day subcutaneously at bedtime in a novel population: people with impaired glucose tolerance (IGT) or impaired fasting glucose (IFG). It was conceived as a pilot study for a large international trial of HOE901 in a dysglycemic population of IGT, IFG, and early type 2 diabetes in order to investigate dosing in the prediabetic (IFG/IGT) population for the first time. Of special interest was the incidence of hypoglycemia during the study.
The study was conducted at three centers in the US. After screening tests, including fasting plasma glucose (FPG) and post prandial plasma glucose (PPG; two hours following a 75 g oral glucose load) for classification as IGT, IFG, diabetic, or normal glucose tolerance (NGT), and after satisfying other inclusion criteria including the ability to perform moderate exercise on a stationary bicycle, subjects were admitted to an inpatient study center. They were confined there for the next 15 days, during which time they were randomly assigned to receive either HOE901 once per day subcutaneously in the evening, or matching placebo (saline) injections in a 3:1 randomization (HOE901:placebo). Baseline assessments included a 5-point (before each meal, bedtime, and 3 AM) and 8-point (5-point plus readings 2 hours after each meal) blood glucose profile on separate days, and 15 minutes of exercise on a stationary bicycle at a level of exertion of “somewhat hard” on the Borg scale with blood glucose values monitored during and for 3 hours following the exercise. Each subject received a 25 kCal/kg diet while confined in the study center. Capillary whole blood glucose values were recorded on HemoCue devices. Episodes of hypoglycemia (blood glucose 50 mg/dL [2.8 mM] or symptoms with blood glucose 65 mg/dL [3.6 mM]) were recorded.
Once randomized, subjects' bedtime doses of study drug were titrated to achieve a fasting blood glucose (FBG) of 80-95 mg/dL [4.4 mM-5.3 mM]. Dose increases were based on FBG values and were performed every 2 days. Subjects remained at the site until the end of the confinement period, regardless of when target FBG levels were achieved. Five-point blood glucose profiles were performed every other day, with 8-point blood glucose profiles performed on alternate days. At endpoint all baseline procedures, including an 8-point blood glucose profile, and an exercise assessment, were repeated.

[2] = test system: US/Canada type 2 diabetic patients; experiment: Treat-to-Target study: hypoglycemia, bedtime LANTUS vs. NPH insulin; assay type: in vivo, human; details: single bedtime dose
Experimental: The ideal basal insulin might be expected to be less worrisome from this standpoint because the circulating insulin produced would target blood glucose elevations throughout the day rather than mealtime fluctuations. […] The “Treat-to-Target” study ^38 in US/Canada type 2 diabetic patients investigated whether a single bedtime dose of Lantus® LANTUS (insulin glargine) vs. NPH insulin (a moderate- to long-acting insulin with a pronounced peak in plasma activity for 4 to 8 hours after injection)^39 would achieve target metabolic control without increasing nocturnal hypoglycemia.
Insulin has features that make it especially useful in the patient with pronounced diabetic dyslipidemia, as compared to the oral antidiabetic agents usually used as initial pharmacotherapy. […] NPH insulin despite having a prolonged duration of action, has a pronounced peak effect from 3-6 hours after injection, rendering it less suitable in the management of the patient with milder diabetes due to the risk for hypoglycemia.

[3] = Multiple-dose pharmacokinetic study (Study 1020); assay type: in vivo; details: 2 days of treatment
Text: (§1) Treatment with Lantus® LANTUS (insulin glargine) insulin offers the possibility of a smooth, daylong, blood insulin profile without a definite peak that can be finely titrated to lower subjects' FPG in a durable manner, while minimizing the risk of hypoglycemia at other times of day.

[4] = test system: type 2 diabetic patients already treated with other oral antidiabetic drugs; experiment: Study 4014: lipid data, LANTUS versus rosiglitazone; assay type: in vivo, human; design: Triglycerides % reduction from baseline / Triglycerides % reduction from baseline, LANTUS-AVANDIA / Non-HDL Cholesterol Total % reduction from baseline: concentration or dose not given beside the values; Triglycerides Baseline / Triglycerides Endpoint: unit not given beside the values; details: for Triglycerides % reduction from baseline, LANTUS-AVANDIA / Triglycerides change at endpoint, LANTUS-AVANDIA: LANTUS minus AVANDIA
[5] = in vivo; cited from earlier work
[6] = test system: individuals with IGT, IFG, or mild untreated type 2 diabetes; experiment: Study HOE901/1021: blood glucose response to 15-minute stationary bicycle exercise; design: species or system human; details: in vivo
Experimental: The study was conducted at three centers in the US. After screening tests, including fasting plasma glucose (FPG) and post prandial plasma glucose (PPG; two hours following a 75 g oral glucose load) for classification as IGT, IFG, diabetic, or normal glucose tolerance (NGT), and after satisfying other inclusion criteria including the ability to perform moderate exercise on a stationary bicycle, subjects were admitted to an inpatient study center. They were confined there for the next 15 days, during which time they were randomly assigned to receive either HOE901 once per day subcutaneously in the evening, or matching placebo (saline) injections in a 3:1 randomization (HOE901:placebo). Baseline assessments included a 5-point (before each meal, bedtime, and 3 AM) and 8-point (5-point plus readings 2 hours after each meal) blood glucose profile on separate days, and 15 minutes of exercise on a stationary bicycle at a level of exertion of “somewhat hard” on the Borg scale with blood glucose values monitored during and for 3 hours following the exercise. Each subject received a 25 kCal/kg diet while confined in the study center. Capillary whole blood glucose values were recorded on HemoCue devices. Episodes of hypoglycemia (blood glucose 50 mg/dL [2.8 mM] or symptoms with blood glucose 65 mg/dL [3.6 mM]) were recorded. […]

[7] = Post-marketing surveillance safety database; design: species or system human
Text: as §1

## insulin glargine [LANTUS]
[1]; Day 12 (endpoint)
  Mean FBG: 85.6 mg/dL
[1]; Day −1 (baseline)
  Mean FBG: 98.1 mg/dL
[1]; Day −1 to Day 12
  reduction in mean daylong blood glucose: 8.8 mg/dL
[1]; by Day 12
  subjects who had reached an FPG of 100 mg/dL: All but 2
  subjects who had reached the FBG target of 95 mg/dL or less: all but 4
[2]
  hypoglycemia vs. NPH: significant reductions in nocturnal hypoglycemia; also recorded: significant advantages over NPH in hypoglycemia
[3]
  doses to reach steady-state levels: 2 doses
[4]; TG baseline range 200-500
  HDL Baseline: 38
  HDL Endpoint: 40
  LDL Baseline: 115
  LDL Endpoint: 111
  Non-HDL Cholesterol Total Baseline: 168
  Non-HDL Cholesterol Total Endpoint: 152
  Triglycerides % reduction from baseline: 18%
  Triglycerides Baseline: 285
  Triglycerides Endpoint: 234
  Triglycerides % reduction from baseline, LANTUS-AVANDIA: 18%
  Triglycerides change at endpoint, LANTUS-AVANDIA: 47.7
[4]; TG baseline range 300-500
  HDL Baseline: 32
  HDL Endpoint: 34
  Non-HDL Cholesterol Total % reduction from baseline: 4%
  Non-HDL Cholesterol Total Baseline: 156
  Non-HDL Cholesterol Total Endpoint: 150
  Triglycerides % reduction from baseline: 27%
  Triglycerides Baseline: 380
  Triglycerides Endpoint: 277
  Triglycerides % reduction from baseline, LANTUS-AVANDIA: 18%
  Triglycerides change at endpoint, LANTUS-AVANDIA: 68.5
[4]; TG baseline range 500-1000
  HDL Baseline: 28
  HDL Endpoint: 29
  Non-HDL Cholesterol Total Baseline: 178
  Non-HDL Cholesterol Total Endpoint: 153
  Triglycerides Baseline: 817
  Triglycerides Endpoint: 494
[5]
  duration of action: up to 24 hour
[6]
  hypoglycemic events during exercise: no hypoglycemic events
[7]
  incidence of hypoglycemia or unexpected adverse reactions compared to other marketed insulin preparations: no increased incidence of hypoglycemia or unexpected adverse reactions
